Experiment: xn = mol fraction of the nth substance listed
Conditions: 100 kPa

CCCCCCCC[n+]1ccccc1.[Br-] + CC(C)C[C@H](N)C(=O)O + O
Conditions	electrical conductivity [S/m]
288.15 K, x2 = 0.0008942, x1 = 0.006691	1.27
288.15 K, x2 = 0.0008943, x1 = 0.006585	1.26
288.15 K, x2 = 0.0008945, x1 = 0.006321	1.23
288.15 K, x2 = 0.0008948, x1 = 0.005952	1.19
288.15 K, x2 = 0.0008952, x1 = 0.005558	1.15
288.15 K, x2 = 0.0008956, x1 = 0.005126	1.11
288.15 K, x2 = 0.000896, x1 = 0.004648	1.05
288.15 K, x2 = 0.0008965, x1 = 0.00414	0.989
288.15 K, x2 = 0.000897, x1 = 0.003579	0.891
288.15 K, x2 = 0.0008975, x1 = 0.002951	0.778
288.15 K, x2 = 0.0008982, x1 = 0.002257	0.635
288.15 K, x2 = 0.0008986, x1 = 0.001784	0.529
288.15 K, x2 = 0.000899, x1 = 0.001328	0.417
288.15 K, x2 = 0.0008994, x1 = 0.0008528	0.298
288.15 K, x2 = 0.001786, x1 = 0.007009	1.29
288.15 K, x2 = 0.001787, x1 = 0.006296	1.21
288.15 K, x2 = 0.001787, x1 = 0.006626	1.25
288.15 K, x2 = 0.001788, x1 = 0.005936	1.17
288.15 K, x2 = 0.001789, x1 = 0.005553	1.12
288.15 K, x2 = 0.00179, x1 = 0.004654	1.02
288.15 K, x2 = 0.00179, x1 = 0.005124	1.08
288.15 K, x2 = 0.001791, x1 = 0.004138	0.963
288.15 K, x2 = 0.001792, x1 = 0.00359	0.869
288.15 K, x2 = 0.001793, x1 = 0.002944	0.753
288.15 K, x2 = 0.001795, x1 = 0.001946	0.545
288.15 K, x2 = 0.001795, x1 = 0.002309	0.625
288.15 K, x2 = 0.001796, x1 = 0.00149	0.443
288.15 K, x2 = 0.001797, x1 = 0.0009613	0.319
293.15 K, x2 = 0.0008942, x1 = 0.006678	1.44
293.15 K, x2 = 0.0008943, x1 = 0.006573	1.42
293.15 K, x2 = 0.0008945, x1 = 0.00631	1.39
293.15 K, x2 = 0.0008948, x1 = 0.005941	1.35
293.15 K, x2 = 0.0008952, x1 = 0.005547	1.3
293.15 K, x2 = 0.0008956, x1 = 0.005117	1.26
293.15 K, x2 = 0.000896, x1 = 0.004639	1.19
293.15 K, x2 = 0.0008965, x1 = 0.004133	1.12
293.15 K, x2 = 0.000897, x1 = 0.003572	1.01
293.15 K, x2 = 0.0008975, x1 = 0.002945	0.879
293.15 K, x2 = 0.0008982, x1 = 0.002253	0.718
293.15 K, x2 = 0.0008986, x1 = 0.001782	0.597
293.15 K, x2 = 0.000899, x1 = 0.001327	0.47
293.15 K, x2 = 0.0008994, x1 = 0.000851	0.333
293.15 K, x2 = 0.001786, x1 = 0.006996	1.47
293.15 K, x2 = 0.001787, x1 = 0.006286	1.38
293.15 K, x2 = 0.001787, x1 = 0.006613	1.43
293.15 K, x2 = 0.001788, x1 = 0.005926	1.33
293.15 K, x2 = 0.001789, x1 = 0.005542	1.28
293.15 K, x2 = 0.00179, x1 = 0.004645	1.16
293.15 K, x2 = 0.00179, x1 = 0.005113	1.23
293.15 K, x2 = 0.001791, x1 = 0.004131	1.09
293.15 K, x2 = 0.001792, x1 = 0.003584	0.986
293.15 K, x2 = 0.001793, x1 = 0.002938	0.852
293.15 K, x2 = 0.001795, x1 = 0.001937	0.616
293.15 K, x2 = 0.001795, x1 = 0.002304	0.706
293.15 K, x2 = 0.001796, x1 = 0.001487	0.497
293.15 K, x2 = 0.001797, x1 = 0.0009613	0.359
298.15 K, x2 = 0.0008942, x1 = 0.006669	1.62
298.15 K, x2 = 0.0008943, x1 = 0.006564	1.6
298.15 K, x2 = 0.0008945, x1 = 0.006301	1.57
298.15 K, x2 = 0.0008948, x1 = 0.005934	1.52
298.15 K, x2 = 0.0008952, x1 = 0.00554	1.47
298.15 K, x2 = 0.0008956, x1 = 0.00511	1.41
298.15 K, x2 = 0.000896, x1 = 0.004634	1.34
298.15 K, x2 = 0.0008965, x1 = 0.004127	1.25
298.15 K, x2 = 0.000897, x1 = 0.003568	1.13
298.15 K, x2 = 0.0008975, x1 = 0.002942	0.987
298.15 K, x2 = 0.0008982, x1 = 0.002249	0.803
298.15 K, x2 = 0.0008986, x1 = 0.00178	0.668
298.15 K, x2 = 0.000899, x1 = 0.001325	0.525
298.15 K, x2 = 0.0008994, x1 = 0.000851	0.369
298.15 K, x2 = 0.001786, x1 = 0.006987	1.66
298.15 K, x2 = 0.001787, x1 = 0.006277	1.56
298.15 K, x2 = 0.001787, x1 = 0.006604	1.61
298.15 K, x2 = 0.001788, x1 = 0.005918	1.51
298.15 K, x2 = 0.001789, x1 = 0.005535	1.45
298.15 K, x2 = 0.00179, x1 = 0.00464	1.31
298.15 K, x2 = 0.00179, x1 = 0.005107	1.38
298.15 K, x2 = 0.001791, x1 = 0.004127	1.23
298.15 K, x2 = 0.001792, x1 = 0.003579	1.11
298.15 K, x2 = 0.001793, x1 = 0.002934	0.956
298.15 K, x2 = 0.001795, x1 = 0.001935	0.69
298.15 K, x2 = 0.001795, x1 = 0.002302	0.791
298.15 K, x2 = 0.001796, x1 = 0.001485	0.558
298.15 K, x2 = 0.001797, x1 = 0.0009595	0.394
303.15 K, x2 = 0.0008942, x1 = 0.006659	1.8
303.15 K, x2 = 0.0008943, x1 = 0.006555	1.79
303.15 K, x2 = 0.0008945, x1 = 0.006292	1.76
303.15 K, x2 = 0.0008949, x1 = 0.005925	1.71
303.15 K, x2 = 0.0008952, x1 = 0.005533	1.65
303.15 K, x2 = 0.0008956, x1 = 0.005102	1.58
303.15 K, x2 = 0.000896, x1 = 0.004627	1.5
303.15 K, x2 = 0.0008965, x1 = 0.00412	1.4
303.15 K, x2 = 0.000897, x1 = 0.003563	1.26
303.15 K, x2 = 0.0008975, x1 = 0.002936	1.1
303.15 K, x2 = 0.0008982, x1 = 0.002246	0.893
303.15 K, x2 = 0.0008986, x1 = 0.001776	0.741
303.15 K, x2 = 0.000899, x1 = 0.001323	0.582
303.15 K, x2 = 0.0008994, x1 = 0.0008492	0.411
303.15 K, x2 = 0.001786, x1 = 0.006976	1.88
303.15 K, x2 = 0.001787, x1 = 0.006268	1.76
303.15 K, x2 = 0.001787, x1 = 0.006595	1.81
303.15 K, x2 = 0.001788, x1 = 0.005909	1.69
303.15 K, x2 = 0.001789, x1 = 0.005527	1.63
303.15 K, x2 = 0.00179, x1 = 0.004633	1.47
303.15 K, x2 = 0.00179, x1 = 0.0051	1.56
303.15 K, x2 = 0.001791, x1 = 0.00412	1.37
303.15 K, x2 = 0.001792, x1 = 0.003575	1.24
303.15 K, x2 = 0.001793, x1 = 0.002931	1.07
303.15 K, x2 = 0.001795, x1 = 0.001932	0.767
303.15 K, x2 = 0.001795, x1 = 0.002298	0.88
303.15 K, x2 = 0.001796, x1 = 0.001483	0.619
303.15 K, x2 = 0.001797, x1 = 0.0009576	0.441
308.15 K, x2 = 0.0008942, x1 = 0.00665	2.05
308.15 K, x2 = 0.0008943, x1 = 0.006544	2.03
308.15 K, x2 = 0.0008945, x1 = 0.006283	1.98
308.15 K, x2 = 0.0008949, x1 = 0.005916	1.91
308.15 K, x2 = 0.0008952, x1 = 0.005524	1.83
308.15 K, x2 = 0.0008956, x1 = 0.005093	1.76
308.15 K, x2 = 0.000896, x1 = 0.00462	1.66
308.15 K, x2 = 0.0008965, x1 = 0.004115	1.53
308.15 K, x2 = 0.000897, x1 = 0.003557	1.39
308.15 K, x2 = 0.0008975, x1 = 0.002933	1.2
308.15 K, x2 = 0.0008982, x1 = 0.002244	0.971
308.15 K, x2 = 0.0008986, x1 = 0.001775	0.809
308.15 K, x2 = 0.000899, x1 = 0.001321	0.643
308.15 K, x2 = 0.0008994, x1 = 0.0008474	0.461
308.15 K, x2 = 0.001786, x1 = 0.006965	2.11
308.15 K, x2 = 0.001787, x1 = 0.006586	2.04
308.15 K, x2 = 0.001788, x1 = 0.0059	1.9
308.15 K, x2 = 0.001788, x1 = 0.006259	1.97
308.15 K, x2 = 0.001789, x1 = 0.005518	1.82
308.15 K, x2 = 0.00179, x1 = 0.004626	1.64
308.15 K, x2 = 0.00179, x1 = 0.005091	1.73
308.15 K, x2 = 0.001791, x1 = 0.004114	1.51
308.15 K, x2 = 0.001792, x1 = 0.003568	1.37
308.15 K, x2 = 0.001793, x1 = 0.002925	1.17
308.15 K, x2 = 0.001795, x1 = 0.00193	0.836
308.15 K, x2 = 0.001795, x1 = 0.002295	0.962
308.15 K, x2 = 0.001796, x1 = 0.001481	0.683
308.15 K, x2 = 0.001797, x1 = 0.0009558	0.483
